{"source": "paper PMC6792352", "about": "“Limited Chemical Structural Diversity Found to Modulate Thyroid Hormone Receptor in the Tox21 Chemical Library” (Environmental Health Perspectives, 2019)", "note": "Where a name gives a salt, the structure may show the parent alone. Positions of bridges follow the written chain, without caps; N, C: chain ends. Non-standard residues stand in square brackets, D forms with d. Residues, ends and D or L forms follow the SMILES beside them. hArg = N=C(N)NCCCC[C@H](N)C(=O)O; Mpa = O=C(O)CCS"}
{"assay": "in vitro", "conditions": "rat, gh3-tre-luc cells, AC50 (uM) modified / 1000", "units": {"CC50 at 24 h": "µM"}}
{"smiles": "CCCCCCCC[N+](C)(CCCCCCCC)CCCCCCCC", "note": "[Methyltrioctylammonium trifluoromethanesulfonate]", "CC50 at 24 h": 4.19}
{"smiles": "CN(C)[C@@H]1C(O)=C(C(N)=O)C(=O)[C@@]2(O)C(O)=C3C(=O)c4c(O)ccc(Cl)c4[C@@H](O)[C@H]3C[C@@H]12", "note": "[Demeclocycline hydrochloride]", "CC50 at 24 h": "> 50"}
{"smiles": "CC(C)CO", "note": "[2-Methyl-1-propanol]", "CC50 at 24 h": "> 90"}
{"smiles": "O=C(O)c1ccc(C(=O)O)c(C(=O)O)c1", "note": "[1,2,4-Benzenetricarboxylic acid]", "CC50 at 24 h": "> 90"}
{"smiles": "COc1cc([C@@H]2c3cc4c(cc3[C@@H](O[C@@H]3O[C@@H]5CO[C@@H](C)O[C@H]5[C@H](O)[C@H]3O)[C@H]3COC(=O)[C@H]23)OCO4)cc(OC)c1OP(=O)(O)O", "note": "[Etoposide phosphate]", "CC50 at 24 h": "> 50"}
{"smiles": "c1ccc2c(c1)Nc1ccccc1S2", "note": "[Phenothiazine]", "CC50 at 24 h": "> 90"}
{"smiles": "c1cc(C(c2ccc(OCC3CO3)cc2)c2ccc(OCC3CO3)cc2)ccc1OCC1CO1", "note": "(centres unmarked) [2,2',2''-[Methanetriyltris(benzene-4,1-diyloxymethanediyl)]trioxirane]", "CC50 at 24 h": 19.4}
{"smiles": "CN1C(=O)/C(=N\\NC(N)=S)c2ccccc21", "note": "[Methisazone]", "CC50 at 24 h": 34.2}
{"smiles": "CC(C)(C)C1=CC(=O)C=C(C(C)(C)C)C1=O", "note": "[2,6-Bis-(1,1-dimethylethyl)-2,5-cyclohexadiene-1,4-dione]", "CC50 at 24 h": "> 90"}
{"smiles": "CC(C)(CCl)C(=O)Cl", "note": "[3-Chloro-2,2-dimethylpropanoyl chloride]", "CC50 at 24 h": "> 90"}
{"smiles": "Cc1c(-c2cccnc2)c2ccccc2n1CCCCC(=O)O", "note": "[UK-156819]", "CC50 at 24 h": "> 90"}
{"smiles": "Cc1nc2ccccc2c(=O)o1", "note": "[2-Methyl-4H,3,1-benzoxazin-4-one]", "CC50 at 24 h": "> 90"}
{"smiles": "O=C(Nc1ccccc1)Nc1ccccc1", "note": "[Diphenylurea]", "CC50 at 24 h": "> 90"}
{"smiles": "CCCCCCCCCCCCCCCCC(C(=O)O)C(O)(CC(=O)O)C(=O)O", "note": "(centres unmarked) [Agaric acid]", "CC50 at 24 h": 29.5}
{"smiles": "O=C(NCCO[N+](=O)[O-])c1cccnc1", "note": "[Nicorandil]", "CC50 at 24 h": "> 50"}
{"smiles": "Nc1ccc(N=Nc2ccccc2)cc1", "note": "[4-Aminoazobenzene]", "CC50 at 24 h": "> 90"}
{"smiles": "CN(Cc1ccccc1)Cc1ccccc1", "note": "[Dibemethine]", "CC50 at 24 h": "> 50"}
{"smiles": "Cc1cc(S(=O)(=O)O)c(N)cc1Cl", "note": "[2-Amino-4-chloro-5-methylbenzenesulfonic acid]", "CC50 at 24 h": "> 90"}
{"smiles": "NNc1nc(-c2ccccc2)cs1", "note": "[2-Hydrazino-4-phenylthiazole]", "CC50 at 24 h": 47}
{"smiles": "O=S(=O)(O)c1ccc(O)cc1", "note": "[Sodium 4-hydroxybenzenesulfonate]", "CC50 at 24 h": "> 90"}
{"smiles": "C=CCS(=O)(=O)O", "note": "[2-Propene-1-sulfonic acid, sodium salt]", "CC50 at 24 h": "> 90"}
{"smiles": "IC(I)=C(I)I", "note": "[Tetraiodoethene]", "CC50 at 24 h": 8.53}
{"smiles": "C=C(C)C(=O)OCCNC(C)(C)C", "note": "[2-(tert-Butylamino)ethyl 2-methylprop-2-enoate]", "CC50 at 24 h": "> 90"}
{"smiles": "Nc1ccncc1N", "note": "[3,4-Diaminopyridine]", "CC50 at 24 h": "> 50"}
{"smiles": "CCN(CC)C(=O)/C(C#N)=C/c1cc(O)c(O)c([N+](=O)[O-])c1", "note": "[Entacapone]", "CC50 at 24 h": "> 50"}
{"smiles": "CO[C@H]1C[C@H](O[C@@H]2/C(C)=C/C[C@@H]3C[C@@H](C[C@]4(CC[C@H](C)[C@@H](C5CCCCC5)O4)O3)OC(=O)[C@@H]3C=C(C)/C(=N/O)[C@H]4OC/C(=C\\C=C\\[C@@H]2C)[C@]43O)O[C@@H](C)[C@@H]1O", "note": "[Selamectin]", "CC50 at 24 h": 33.2}
{"smiles": "CC[C@H](C)[C@@H](C(=O)O)n1sc2ccccc2c1=O", "note": "[(2S,3S)-3-Methyl-2-(3-oxo-1,2-benzothiazol-2(3H)-yl)pentanoic acid]", "CC50 at 24 h": "> 90"}
{"smiles": "O=C1C=CC(=O)O1", "note": "[2,5-Furandione]", "CC50 at 24 h": "> 100"}
{"smiles": "O=C(CCN1CCC(c2ccccc2)C1)c1ccc2c(c1)OCCO2", "note": "(centres unmarked) [Proroxan]", "CC50 at 24 h": 38.9}
{"smiles": "CC(C)(CO)[C@@H](O)C(=O)NCCCC(=O)O", "note": "[Calcium hopantenate]", "CC50 at 24 h": "> 50"}
{"smiles": "Cc1ccc(Cl)cc1N", "note": "[5-Chloro-2-methylaniline]", "CC50 at 24 h": "> 90"}
{"smiles": "COc1ccc(Cc2cnc(N)nc2N)cc1OC", "note": "[Diaveridine]", "CC50 at 24 h": "> 50"}
{"smiles": "CCCCCC1Nc2cc(C(F)(F)F)c(S(N)(=O)=O)cc2S(=O)(=O)N1", "note": "(centres unmarked) [Penflutizide]", "CC50 at 24 h": "> 50"}
{"smiles": "NC/C=C/C(=O)O", "note": "[(E)-4-amino-2-butenoic acid]", "CC50 at 24 h": "> 50"}
{"smiles": "COC(=O)CCC[N+](C)(C)C", "note": "[Carpronium chloride]", "CC50 at 24 h": "> 50"}
{"smiles": "CCNC(=O)[C@@H](C)OC(=O)Nc1ccccc1", "note": "[Carbetamide]", "CC50 at 24 h": "> 90"}
{"smiles": "Cc1c(O)cccc1O", "note": "[2-Methyl-1,3-benzenediol]", "CC50 at 24 h": "> 90"}
{"smiles": "CC[C@@H]([C@H](C)O)n1ncn(-c2ccc(N3CCN(c4ccc(OC[C@@H]5CO[C@@](Cn6cncn6)(c6ccc(F)cc6F)C5)cc4)CC3)cc2)c1=O", "note": "[Posaconazole]", "CC50 at 24 h": 26.4}
{"smiles": "O=C(O)c1cc(O)c2c3nc4ccccc4oc-3cc(=O)c2n1", "note": "[Pirenoxine sodium]", "CC50 at 24 h": "> 50"}
{"smiles": "C=C1/C(=C\\C=C2/CCC[C@]3(C)[C@@H]([C@H](C)/C=C/[C@H](C)C(C)C)CC[C@@H]23)C[C@@H](O)C[C@@H]1O", "note": "[1-alpha-Hydroxyergocalciferol]", "CC50 at 24 h": 37.5}
{"smiles": "CN(C)C1CCCCC1", "note": "[N,N-Dimethylcyclohexylamine]", "CC50 at 24 h": "> 90"}
{"smiles": "CSC(C)(C)/C=N/O", "note": "[Aldicarb oxime]", "CC50 at 24 h": "> 90"}
{"smiles": "COCC(C)OC(C)=O", "note": "(centres unmarked) [1-Methoxy-2-propyl acetate]", "CC50 at 24 h": "> 90"}
{"smiles": "N=C(N)NCCCC[C@@H]1NC(=O)CCSSC[C@@H](C(N)=O)NC(=O)[C@@H]2CCCN2C(=O)[C@H](Cc2c[nH]c3ccccc23)NC(=O)[C@H](CC(=O)O)NC(=O)CNC1=O", "note": "[Eptifibatide] ([Mpa][hArg]GDWPC-NH2; disulfide 1-7)", "CC50 at 24 h": "> 50"}
{"smiles": "CCOC(=O)c1ccc(C2CCC(NC[C@H](O)COc3ccc(O)c(NS(C)(=O)=O)c3)CC2)cc1", "note": "(some centres unmarked) [SAR 150640]", "CC50 at 24 h": 34.8}
{"smiles": "NCC(CC(=O)O)c1ccc(Cl)cc1", "note": "(centres unmarked) [Baclofen]", "CC50 at 24 h": "> 50"}
{"smiles": "COc1nn(C(=O)NS(=O)(=O)c2ccccc2OC(F)(F)F)c(=O)n1C", "note": "[Flucarbazone-sodium]", "CC50 at 24 h": "> 90"}
{"smiles": "CCCC/C=C/CCCCO", "note": "[(E)-5-Decen-1-ol]", "CC50 at 24 h": "> 90"}
{"smiles": "CCOc1ccc2[nH]cc(C(=O)NCc3ccccc3)c(=O)c2n1", "note": "[CP-457920]", "CC50 at 24 h": "> 90"}
{"smiles": "O=C(/C=C/c1ccc(O)c(O)c1)O[C@@H]1C[C@](OC(=O)/C=C/c2ccc(O)c(O)c2)(C(=O)O)C[C@@H](O)[C@H]1O", "note": "[1,5-Dicaffeoylquinic acid]", "CC50 at 24 h": "> 50"}
{"smiles": "CC(C)=C1CC[C@@H](C)CC1=O", "note": "[R-(+)-Pulegone]", "CC50 at 24 h": "> 90"}
{"smiles": "CCN(Cc1ccc(Cl)nc1)/C(=C/[N+](=O)[O-])NC", "note": "[(E)-Nitenpyram]", "CC50 at 24 h": "> 50"}
{"smiles": "CNC(=S)NN", "note": "[N-Methylhydrazinecarbothioamide]", "CC50 at 24 h": 52.5}
{"assay": "in vitro", "conditions": "rat, gh3-tre-luc cells, AC50 (uM) modified / 1000, Tox21_110001=Tox21_111618; viability, 1 nM T3 present, 24 h", "units": {"CC50 at 24 h": "µM"}}
{"smiles": "NNc1ccccc1", "note": "[Phenylhydrazine hydrochloride]", "CC50 at 24 h": "> 50"}
{"assay": "in vitro", "conditions": "rat, gh3-tre-luc cells, AC50 (uM) modified / 1000, Tox21_110001=Tox21_201505; viability, 1 nM T3 present, 24 h", "units": {"CC50 at 24 h": "µM"}}
{"smiles": "C1CC2OC2CC1C1CO1", "note": "(centres unmarked) [4-Vinyl-1-cyclohexene dioxide]", "CC50 at 24 h": "> 90"}
{"assay": "in vitro", "conditions": "rat, gh3-tre-luc cells, AC50 (uM) modified / 1000, Tox21_110001=Tox21_202198; viability, 1 nM T3 present, 24 h", "units": {"CC50 at 24 h": "µM"}}
{"smiles": "NNc1ccccc1", "note": "[Phenylhydrazine hydrochloride]", "CC50 at 24 h": 40.6}
{"assay": "in vitro", "conditions": "rat, gh3-tre-luc cells, AC50 (uM) modified / 1000, Tox21_110001=Tox21_202753; viability, 1 nM T3 present, 24 h", "units": {"CC50 at 24 h": "µM"}}
{"smiles": "O=P(O)(O)CN(CP(=O)(O)O)CP(=O)(O)O", "note": "[Aminotrimethylene phosphonic acid]", "CC50 at 24 h": "> 20"}
{"assay": "in vitro", "conditions": "rat, gh3-tre-luc cells, AC50 (uM) modified / 1000, Tox21_110001=Tox21_301855; viability, 1 nM T3 present, 24 h", "units": {"CC50 at 24 h": "µM"}}
{"smiles": "Cc1cc(OC(=O)N(C)C)nn1C(=O)N(C)C", "note": "[Dimetilan]", "CC50 at 24 h": "> 90"}
{"assay": "in vitro", "conditions": "rat, gh3-tre-luc cells, AC50 (uM) modified / 1000, Tox21_110001=Tox21_302936; viability, 1 nM T3 present, 24 h", "units": {"CC50 at 24 h": "µM"}}
{"smiles": "NNc1ccccc1", "note": "[Phenylhydrazine hydrochloride]", "CC50 at 24 h": 66.7}
